Data from ChEMBL document CHEMBL5344441, “Discovery and Preclinical Pharmacology of NX-2127, an Orally Bioavailable Degrader of Bruton's Tyrosine Kinase with Immunomodulatory Activity for the Treatment of Patients with B Cell Malignancies” (J Med Chem, 2024).
≈ marks a conversion by molar mass, not a printed value. Calls of active or inactive are those of the source. No cut-off for these calls is given here.

Tests used:
[1] = molecular target: T1, Protein cereblon/Tyrosine-protein kinase BTK (Homo sapiens, UniProt Q06187+Q96SW2); test: PROTAC activity at CRBN/BTK in human TMD8 cells assessed as maximal degradation of BTK protein incubated for 4 hrs by HTRF assay relative to control; type: cell-based
T1 sequence (Q06187 2-659 limits assumed): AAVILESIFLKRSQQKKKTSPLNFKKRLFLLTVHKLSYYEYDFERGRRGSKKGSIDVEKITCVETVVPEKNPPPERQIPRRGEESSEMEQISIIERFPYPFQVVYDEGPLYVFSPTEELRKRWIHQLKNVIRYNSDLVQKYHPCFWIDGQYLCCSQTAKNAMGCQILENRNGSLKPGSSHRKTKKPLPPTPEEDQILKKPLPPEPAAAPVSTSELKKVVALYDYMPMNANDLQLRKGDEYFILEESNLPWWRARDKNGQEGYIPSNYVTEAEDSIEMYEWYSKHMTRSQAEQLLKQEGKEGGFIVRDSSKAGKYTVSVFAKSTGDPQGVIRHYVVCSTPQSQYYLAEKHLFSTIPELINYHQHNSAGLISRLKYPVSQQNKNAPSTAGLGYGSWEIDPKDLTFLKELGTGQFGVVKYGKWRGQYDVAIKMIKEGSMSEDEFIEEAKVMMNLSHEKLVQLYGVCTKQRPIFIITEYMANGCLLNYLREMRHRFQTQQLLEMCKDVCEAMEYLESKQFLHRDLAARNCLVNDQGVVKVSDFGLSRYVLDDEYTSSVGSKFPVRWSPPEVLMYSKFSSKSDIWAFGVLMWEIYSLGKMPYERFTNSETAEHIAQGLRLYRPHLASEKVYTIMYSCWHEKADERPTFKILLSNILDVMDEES
T1 sequence (Q96SW2 whole entry partner): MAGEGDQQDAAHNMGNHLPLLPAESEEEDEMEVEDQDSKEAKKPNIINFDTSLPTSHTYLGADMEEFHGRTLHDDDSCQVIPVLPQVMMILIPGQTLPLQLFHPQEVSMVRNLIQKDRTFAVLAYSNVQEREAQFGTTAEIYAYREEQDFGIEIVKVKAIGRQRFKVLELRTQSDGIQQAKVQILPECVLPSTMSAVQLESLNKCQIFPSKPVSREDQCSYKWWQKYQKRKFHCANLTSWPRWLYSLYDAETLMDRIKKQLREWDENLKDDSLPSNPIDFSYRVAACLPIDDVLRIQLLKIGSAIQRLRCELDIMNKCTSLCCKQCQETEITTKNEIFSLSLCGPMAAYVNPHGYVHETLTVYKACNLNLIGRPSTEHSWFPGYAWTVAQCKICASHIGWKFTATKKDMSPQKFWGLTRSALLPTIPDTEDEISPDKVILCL

[2] = molecular target: T2, Protein cereblon/Tyrosine-protein kinase BTK (Mus musculus) (UniProt P35991+Q8C7D2); test: In vivo protac activity at CRBN/BTK in CD-1 mouse assessed as remaining BTK protein in blood at 30 mg/kg,po administration measured after 24 hrs by flow cytomtery relative to control; type: functional, organism-based
T2 sequence (P35991 whole entry, looked up): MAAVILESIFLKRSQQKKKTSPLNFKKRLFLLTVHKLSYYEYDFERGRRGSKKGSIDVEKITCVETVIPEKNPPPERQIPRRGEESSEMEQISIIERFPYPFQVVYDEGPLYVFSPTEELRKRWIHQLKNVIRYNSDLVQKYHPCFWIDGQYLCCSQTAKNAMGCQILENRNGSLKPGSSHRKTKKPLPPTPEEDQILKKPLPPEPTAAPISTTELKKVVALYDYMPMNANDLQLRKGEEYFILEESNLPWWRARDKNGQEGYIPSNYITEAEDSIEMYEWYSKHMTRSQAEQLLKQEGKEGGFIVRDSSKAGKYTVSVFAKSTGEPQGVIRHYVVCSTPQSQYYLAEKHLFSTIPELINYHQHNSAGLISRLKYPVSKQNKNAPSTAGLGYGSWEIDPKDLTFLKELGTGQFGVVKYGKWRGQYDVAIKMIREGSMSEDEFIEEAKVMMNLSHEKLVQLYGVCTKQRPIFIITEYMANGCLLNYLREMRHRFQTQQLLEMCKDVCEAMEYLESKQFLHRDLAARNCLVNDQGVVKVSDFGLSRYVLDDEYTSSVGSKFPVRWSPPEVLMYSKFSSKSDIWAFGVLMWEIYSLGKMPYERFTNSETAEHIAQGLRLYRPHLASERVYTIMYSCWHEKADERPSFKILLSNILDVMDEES
T2 sequence (Q8C7D2 whole entry, looked up): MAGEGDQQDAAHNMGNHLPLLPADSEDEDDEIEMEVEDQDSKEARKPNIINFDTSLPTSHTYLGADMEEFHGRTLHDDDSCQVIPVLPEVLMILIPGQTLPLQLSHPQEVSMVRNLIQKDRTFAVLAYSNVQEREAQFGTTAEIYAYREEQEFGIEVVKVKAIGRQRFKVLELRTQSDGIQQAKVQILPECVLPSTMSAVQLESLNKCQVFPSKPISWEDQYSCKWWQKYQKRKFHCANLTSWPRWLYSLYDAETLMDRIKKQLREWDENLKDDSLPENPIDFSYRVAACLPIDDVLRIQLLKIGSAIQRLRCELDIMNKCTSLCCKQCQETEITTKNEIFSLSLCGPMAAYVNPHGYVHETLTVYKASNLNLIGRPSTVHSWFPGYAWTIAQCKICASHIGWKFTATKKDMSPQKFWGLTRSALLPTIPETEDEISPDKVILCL

[3] = molecular target: Protein cereblon/Tyrosine-protein kinase BTK (Homo sapiens, UniProt Q06187+Q96SW2, C481S); test: PROTAC activity at CRBN/BTK C481S mutant in human TMD8 cells assessed as degradation of BTK protein incubated for 4 hrs by HTRF assay; type: cell-based
Chain of Protein cereblon/Tyrosine-protein kinase BTK (Homo sapiens, UniProt Q06187+Q96SW2, C481S) (Q06187 2-659 C481S limits assumed, stated change not applied): as the sequence (Q06187 2-659 limits assumed) above, with C480S counted along it
Chain of Protein cereblon/Tyrosine-protein kinase BTK (Homo sapiens, UniProt Q06187+Q96SW2, C481S) (Q96SW2 whole entry, stated change not applied): as the sequence (Q96SW2 whole entry partner) above

Cereblon/Ikaros [4] = molecular target: T3, Cereblon/Ikaros (Homo sapiens, UniProt Q96SW2+Q13422); test: PROTAC activity at CRBN/IKZF1 in human T cell assessed as degradation of IKZF1 protein incubated for 24 hrs by flow cytometry; type: cell-based
[5] = Aqueous solubility of the compound in PBS at pH 7.4; type: physicochemical
[6] = Apparent permeability across apical to basolateral side in human Caco-2 cells; type: ADME, cell-based
[7] = Plasma protein binding in rat; type: ADME, cell-free; conditions: read-out: PPB
[8] = AUC in mouse at 10 mg/kg,po; type: ADME, organism-based; set-up: dose 10 mg/kg, route po; conditions: in vivo
[9] = AUC in cynomolgus monkey at 10 mg/kg,po; type: ADME, organism-based, Macaca fascicularis; set-up: dose 10 mg/kg, route po; conditions: in vivo
[10] = Cmax in cynomolgus monkey at 10 mg/kg,po; type: ADME, organism-based, Macaca fascicularis; set-up: dose 10 mg/kg, route po; conditions: in vivo
[11] = Oral bioavailability in rat at 10 mg/kg; type: ADME, organism-based; conditions: in vivo
[12] = molecular target: T2, Protein cereblon/Tyrosine-protein kinase BTK (Mus musculus); test: In vivo protac activity at CRBN/BTK in mouse assessed as remaining BTK protein at 10 mg/kg,po administration measured after 24 hrs by flow cytomtery relative to control; type: functional, organism-based
[13] = molecular target: Protein cereblon-BTK (Canis lupus familiaris) (UniProt A0A8I3NIQ5+A0A8I3P7Z3); test: In vivo protac activity at CRBN/BTK in Beagle dog assessed as remaining BTK protein at 10 mg/kg,po administration measured after 24 hrs by flow cytomtery relative to control; type: functional, organism-based
[14] = molecular target: T4, Protein cereblon-BTK (Macaca fascicularis) (UniProt A0A2K5UTB3+A0A7N9IGT8); test: In vivo protac activity at CRBN/BTK in cynomolgus monkey assessed as remaining BTK protein at 10 mg/kg,po administration measured after 24 hrs by flow cytomtery relative to control; type: functional, organism-based
T4 sequence (A0A2K5UTB3 1-488): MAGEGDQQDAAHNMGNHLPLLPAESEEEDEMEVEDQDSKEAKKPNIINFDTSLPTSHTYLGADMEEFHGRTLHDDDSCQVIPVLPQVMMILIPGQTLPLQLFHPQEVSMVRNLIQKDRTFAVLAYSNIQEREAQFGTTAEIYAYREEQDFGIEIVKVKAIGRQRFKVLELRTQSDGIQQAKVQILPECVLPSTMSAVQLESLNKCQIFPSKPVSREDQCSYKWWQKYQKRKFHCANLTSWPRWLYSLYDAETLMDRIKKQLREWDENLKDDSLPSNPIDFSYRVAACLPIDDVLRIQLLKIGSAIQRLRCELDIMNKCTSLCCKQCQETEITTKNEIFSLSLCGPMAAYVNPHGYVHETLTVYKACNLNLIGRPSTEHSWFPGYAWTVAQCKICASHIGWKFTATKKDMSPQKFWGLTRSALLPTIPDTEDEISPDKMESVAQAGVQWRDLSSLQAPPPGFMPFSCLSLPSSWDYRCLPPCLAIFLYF
T4 sequence (A0A7N9IGT8 entry or part of it partner): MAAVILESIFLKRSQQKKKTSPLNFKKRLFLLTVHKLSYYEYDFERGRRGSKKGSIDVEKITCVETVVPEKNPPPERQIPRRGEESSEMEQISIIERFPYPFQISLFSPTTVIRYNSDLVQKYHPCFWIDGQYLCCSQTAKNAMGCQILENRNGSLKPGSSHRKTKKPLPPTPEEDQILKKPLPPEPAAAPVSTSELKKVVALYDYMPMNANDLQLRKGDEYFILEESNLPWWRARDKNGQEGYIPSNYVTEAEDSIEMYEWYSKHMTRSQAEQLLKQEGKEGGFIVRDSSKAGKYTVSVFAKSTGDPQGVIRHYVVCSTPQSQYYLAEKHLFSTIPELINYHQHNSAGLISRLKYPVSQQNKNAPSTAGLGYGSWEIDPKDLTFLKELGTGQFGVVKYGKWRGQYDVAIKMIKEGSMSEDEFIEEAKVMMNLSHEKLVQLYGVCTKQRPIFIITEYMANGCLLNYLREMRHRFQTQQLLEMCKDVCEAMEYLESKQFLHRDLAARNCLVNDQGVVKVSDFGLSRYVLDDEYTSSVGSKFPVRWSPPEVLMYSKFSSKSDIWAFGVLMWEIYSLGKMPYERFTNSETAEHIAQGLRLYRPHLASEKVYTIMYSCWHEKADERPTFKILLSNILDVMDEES

[15] = molecular target: T1, Protein cereblon/Tyrosine-protein kinase BTK; test: PROTAC activity at CRBN/BTK in human PBMC cells asessed as degradation of BTK protein at 50 nM incubated for 4 hrs by proteomics assay based LC-MS/MS analysis; type: cell-based
[16] = Drug uptake in BALB/c mouse plasma at po administration; type: ADME, organism-based; conditions: in vivo
[17] = Cmax in cynomolgus monkey at 10 mg/kg,po administration for 1 day; type: ADME, organism-based, Macaca fascicularis; set-up: time 1 day, dose 10 mg/kg, route po; conditions: in vivo, 24 h
[18] = AUClast in cynomolgus monkey at 10 mg/kg,po administration for 14 days; type: ADME, organism-based, Macaca fascicularis; set-up: time 14 day, dose 10 mg/kg, route po; conditions: in vivo
[19] = molecular target: T4, Protein cereblon-BTK (Macaca fascicularis); test: In vivo protac activity at CRBN/BTK in cynomolgus monkey assessed as degradation of BTK protein at po administration measured after 24 hrs by flow cytomtery; type: functional, organism-based
[20] = molecular target: T5, Protein cereblon/Zinc finger protein Aiolos (Macaca fascicularis) (UniProt A0A2K5UTB3+A0A2K5VJM3); test: In vivo protac activity at CRBN/IKZF3 in cynomolgus monkey assessed as degradation of IKZF3 protein at po administration measured after 24 hrs by flow cytomtery; type: functional, organism-based
T5 sequence (A0A2K5UTB3 1-488): as the sequence (A0A2K5UTB3 1-488) above
T5 sequence (A0A2K5VJM3 entry or part of it partner): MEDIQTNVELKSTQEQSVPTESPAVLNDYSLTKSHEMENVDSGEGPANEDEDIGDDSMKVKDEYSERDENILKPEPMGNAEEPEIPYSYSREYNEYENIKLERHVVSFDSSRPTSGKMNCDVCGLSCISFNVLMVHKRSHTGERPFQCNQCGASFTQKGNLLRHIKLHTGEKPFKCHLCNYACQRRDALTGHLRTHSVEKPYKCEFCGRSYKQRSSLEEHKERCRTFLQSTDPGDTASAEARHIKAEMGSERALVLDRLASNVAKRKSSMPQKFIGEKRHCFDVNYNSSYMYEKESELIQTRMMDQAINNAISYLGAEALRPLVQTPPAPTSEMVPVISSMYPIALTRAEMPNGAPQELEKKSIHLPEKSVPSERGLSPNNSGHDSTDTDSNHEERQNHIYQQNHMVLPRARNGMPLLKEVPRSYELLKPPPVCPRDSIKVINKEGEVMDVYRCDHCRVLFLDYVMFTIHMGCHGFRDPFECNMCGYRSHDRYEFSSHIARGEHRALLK

[21] = molecular target: T4, Protein cereblon-BTK (Macaca fascicularis); test: In vivo protac activity at CRBN/BTK in cynomolgus monkey assessed as remaining BTK protein in B cells at 30 mg/kg,po administration for 1 day by flow cytomtery relative to control; type: functional, organism-based
[22] = molecular target: T4, Protein cereblon-BTK (Macaca fascicularis); test: In vivo protac activity at CRBN/BTK in cynomolgus monkey assessed as remaining BTK protein in B cells at 10 to 100 mg/kg,po administration for 14 days by flow cytomtery relative to control; type: functional, organism-based; conditions: dose 10-100 mg/kg, time 14.0 day
[23] = molecular target: T5, Protein cereblon/Zinc finger protein Aiolos (Macaca fascicularis); test: In vivo protac activity at CRBN/IKZF3 in cynomolgus monkey assessed as degradation of IKZF3 protein at 30 mg/kg,po administration for 14 days by flow cytomtery relative to control; type: functional, organism-based; conditions: time 14.0 day
[24] = molecular target: T2, Protein cereblon/Tyrosine-protein kinase BTK (Mus musculus); test: In vivo protac activity at CRBN/BTK in CB17-SCID mouse assessed as degradation of BTK protein in B cells at 10 to 90 mg/kg,po administration for 25 days by flow cytomtery; type: functional, organism-based; conditions: dose 10-90 mg/kg, time 25.0 day
Cereblon/Ikaros [25] = molecular target: T3, Cereblon/Ikaros; test: In vivo protac activity at CRBN/IKZF1 in CB17-SCID mouse xenografted with human TMD8 cells assessed as degradation of IKZF1 protein in tumor at 10 to 90 mg/kg,po administration for 25 days by flow cytomtery; type: functional, organism-based; conditions: dose 10-90 mg/kg, time 25.0 day
[26] = molecular target: Protein cereblon/Zinc finger protein Aiolos (Homo sapiens, UniProt Q96SW2+Q9UKT9); test: In vivo protac activity at CRBN/IKZF3 in CB17-SCID mouse xenografted with human TMD8 cells assessed as degradation of IKZF3 protein in tumor at 10 to 90 mg/kg,po administration for 25 days by flow cytomtery; type: functional, organism-based; conditions: dose 10-90 mg/kg, time 25.0 day
TMD8 [27] = test: Antitumor activity against human TMD8 cells expressing wild type BTK xenografted in CB17-SCID mouse assessed as tumor growth inhibition at 90 mg/kg,po administration for 25 days; type: functional; conditions: TMD8, 600 h, time 25 day, read-out: TGI
TMD8 [28] = test: Antitumor activity against human TMD8 cells expressing BTK C481S mutant xenografted in CB17-SCID mouse assessed as tumor growth inhibition at 90 mg/kg,po administration for 25 days; type: functional; conditions: TMD8, 600 h, time 25 day, read-out: TGI
[29] = molecular target: Voltage-gated inwardly rectifying potassium channel KCNH2 (Homo sapiens, UniProt Q12809); test: Inhibition of human ERG; type: toxicity
Cytochrome P450 3A4 [30] = molecular target: T6, Cytochrome P450 3A4 (Homo sapiens, UniProt P08684); test: Inhibition of CYP3A4 (unknown origin); type: ADME
T6 sequence (P08684 whole entry): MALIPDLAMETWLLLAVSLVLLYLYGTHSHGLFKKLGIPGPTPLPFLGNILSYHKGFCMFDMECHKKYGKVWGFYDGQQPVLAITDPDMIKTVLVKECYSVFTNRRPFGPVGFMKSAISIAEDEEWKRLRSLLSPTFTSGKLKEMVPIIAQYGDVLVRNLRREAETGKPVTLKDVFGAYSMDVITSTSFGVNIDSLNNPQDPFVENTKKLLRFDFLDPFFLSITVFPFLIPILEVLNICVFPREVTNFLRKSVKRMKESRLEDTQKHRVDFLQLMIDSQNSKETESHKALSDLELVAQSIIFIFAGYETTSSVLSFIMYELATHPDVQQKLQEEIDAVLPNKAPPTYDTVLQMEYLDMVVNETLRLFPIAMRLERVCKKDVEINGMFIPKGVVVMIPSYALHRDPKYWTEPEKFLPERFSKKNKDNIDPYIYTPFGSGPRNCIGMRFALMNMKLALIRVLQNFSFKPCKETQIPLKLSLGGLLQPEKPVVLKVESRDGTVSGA

Cytochrome P450 2D6 = Cytochrome P450 2D6 (Homo sapiens, UniProt P10635); test: Inhibition of CYP2D6 (unknown origin); type: ADME
Cytochrome P450 2C9 = Cytochrome P450 2C9 (Homo sapiens, UniProt P11712); test: Inhibition of CYP2C9 (unknown origin); type: ADME
Chain of Cytochrome P450 2C9 (P11712 whole entry): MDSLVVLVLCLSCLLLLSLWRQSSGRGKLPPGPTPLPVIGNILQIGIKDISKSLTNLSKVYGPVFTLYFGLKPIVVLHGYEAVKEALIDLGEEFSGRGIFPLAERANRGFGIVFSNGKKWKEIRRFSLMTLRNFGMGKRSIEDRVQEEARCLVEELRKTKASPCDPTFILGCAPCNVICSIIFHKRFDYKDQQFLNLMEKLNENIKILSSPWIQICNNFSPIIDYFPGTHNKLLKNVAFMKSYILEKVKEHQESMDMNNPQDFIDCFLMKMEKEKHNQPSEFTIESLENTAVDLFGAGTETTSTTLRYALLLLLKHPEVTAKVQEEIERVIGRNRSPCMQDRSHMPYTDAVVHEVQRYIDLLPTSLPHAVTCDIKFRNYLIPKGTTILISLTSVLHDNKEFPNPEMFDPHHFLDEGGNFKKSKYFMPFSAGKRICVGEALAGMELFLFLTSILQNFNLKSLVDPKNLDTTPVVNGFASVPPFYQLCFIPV

Cytochrome P450 2C19 = Cytochrome P450 2C19 (Homo sapiens, UniProt P33261); test: Inhibition of CYP2C19 (unknown origin); type: ADME
Cytochrome P450 1A2 = Cytochrome P450 1A2 (Homo sapiens, UniProt P05177); test: Inhibition of CYP1A2 (unknown origin); type: ADME
Cytochrome P450 3A4 [31] = molecular target: T6, Cytochrome P450 3A4; test: Time dependent inhibition of CYP3A4 (unknown origin); type: ADME
[32] = molecular target: Tyrosine-protein kinase BTK (Homo sapiens, UniProt Q06187); test: Binding affinity to BTK (unknown origin) assessed as dissociation constant by surface plasmon resonance assay
[33] = molecular target: T2, Protein cereblon/Tyrosine-protein kinase BTK (Mus musculus); test: In vivo protac activity at CRBN/BTK in BALB/c mouse assessed as residual BTK protein in blood at 10 mg/kg,po administration measured after 24 hrs by flow cytomtery relative to control

SMILES: NC(=O)c1ncc(N2CCCCC2)nc1Nc1ccc(C2CCN(C[C@H]3CCN(c4ccc5c(c4)C(=O)N(C4CCC(=O)NC4=O)C5=O)C3)CC2)cc1 (some centres not stated) [ZELEBRUDOMIDE]
- Emax [1]: 94%
- Activity [2]: 11%
- DC50 [3]: 0.031 µM
- DC50 (Cereblon/Ikaros [4]): 0.057 µM
- solubility [5]: 0.2 µM (≈ 0.144 µg/mL)
- Papp A→B [6]: < 0.2 nm/s
- fraction unbound [7]: < 0.015
- AUC [8]: 16 µM·h
- AUC [9]: 0.09 µM·h
- Cmax [10]: 0.011 µM
- bioavailability [11]: 7.1%
- Activity [12]: 21%
- Activity [13]: 17%
- Activity [14]: 10%
- Activity [15]: Active
- Drug uptake [16]: Dose-Dependent Effect
- Cmax [17]: 0.0269 µg/mL
- AUC(0-t) at 336 h [18]: 0.366 µg·h/mL
- Activity [19]: Dose-Dependent Effect
- Activity [20]: Dose-Dependent Effect
- Activity [21]: 9%
- Activity [22]: < 10%
- Activity [23]: 55%
- Activity [24]: Active
- Activity (Cereblon/Ikaros [25]): Active
- Activity [26]: Active
- inhibition in vivo at 90 mg/kg (TMD8 [27]): 99%
- inhibition in vivo at 90 mg/kg (TMD8 [28]): 59%
- IC50 [29]: > 30 µM
- IC50 (Cytochrome P450 3A4 [30]): > 30 µM
- IC50 (Cytochrome P450 2D6): > 30 µM
- IC50 (Cytochrome P450 2C9): > 30 µM
- IC50 (Cytochrome P450 2C19): > 30 µM
- IC50 (Cytochrome P450 1A2): > 30 µM
- TDI (Cytochrome P450 3A4 [31]): Not Active
- Kd [32]: 0.045 µM
- residual activity [33]: 21%
